{"source": "patent US8597693B2", "about": "“Pharmaceutical composition with immunomodulating function” (Industrial Technology Research Institute, priority 2010, dated 2013)", "key": {"[1]": {"system": "carrageenan induced hindpaw edema", "test": "Carrageenan induced hindpaw edema in a rat model", "type": "in vivo, Long-Evan rats", "conditions": "3 mg/kg fed 1 hour before carrageenan (positive control), left hindpaw volume", "protocol": "Long-Evan rats were fed with the extract (a) in Example 5 (i) in an amount of 250 mg/kg, 500 mg/kg, 1000 mg/kg, respectively. The positive control was fed with 3 mg/kg of indomethacin (NSAID). The negative control was fed with 10 ml/kg of 2% Tween 80 as a carrier. After 1 hour, the rats were injected 0.1 ml of 1% carrageenan on the left hindpaw. The volume of the rat's left hindpaw was measured by plethysmometer (Stoelting) at the 0, 1.5th, and 3rd hour after injection. The inhibition was calculated by the formula: Inhibition(%)=(Nt−Nv)/Nv×100\nIn the formula, Nt represents the left hindpaw volume of the rat fed with the ethanol extract; Nv represents the left hindpaw of the rat fed with the carrier."}, "TNF-α [2]": {"system": "TNF-α", "test": "TNBS enteritis mouse model, TNF-α in colon infusion", "type": "in vivo, BABL/c mice", "conditions": "0.6 mg/kg fed + 1.75 mg of TNBS; colon infusion after 48 hours; negative value = enhanced excretion", "source_text": "(§1) The BABL/c mice were categorized into 4 groups. Each group had 6 […]."}, "IL-6 [3]": {"system": "IL-6", "test": "TNBS enteritis mouse model, IL-6 in colon infusion", "type": "in vivo, BABL/c mice", "conditions": "0.6 mg/kg fed + 1.75 mg of TNBS; colon infusion after 48 hours; negative value = enhanced excretion", "source_text": "as §1"}, "TNF-α [4]": {"system": "TNF-α", "test": "Inhibition of TNF-α excretion in LPS-stimulated U937 cells", "type": "cell-based", "conditions": "Homo sapiens, U-937; PMA-activated U937, 30 minutes preincubation, LPS 4 hours, ELISA of supernatant", "protocol": "The cell line, U937 (human monocyte cell line), was incubated in RPMI medium containing 50 ng/ml PMA (phorbol 12-myristate 13-acetate) (Sigma) and 10% fetal bovine serum (Moor et. al., Roswell Park Memorial Institute) for 24 hours. The cell line was then moved to the RPMI medium without PMA for further 48 hours. The activated U937 was seeded into a 96-well plate in a concentration of 1.6×10^5 cell/well. The wells were added 12.5 μg/ml, 25 μg/ml, 50 μg/ml and 100 μg/ml of kaerophyllin and 1 μg/ml, 3 μg/ml, 10 μg/ml and 30 μg/ml of isokaerphyllin and 10 μl of buffer, respectively. Each well was adjusted to a final volume of 190 μl. The plate was reacted under 37° C. for 30 minutes. Each well was added 10 μl of 20 μg/ml LPS to stimulate cells. After 4 hours under 37° C., the plate was centrifuged to collect the supernatants.\nThe amount of TNF-α in the supernatant was measured by ELISA (R&D System®) based on the control (DMSO). Meanwhile, the cell viability was measured by MTT assay (Sigma)."}, "IL-6 [5]": {"system": "IL-6", "test": "Inhibition of IL-6 excretion in LPS-stimulated U937 cells", "type": "cell-based", "conditions": "Homo sapiens, U-937; PMA-activated U937, 30 minutes preincubation, LPS 16-18 hours, ELISA of supernatant", "protocol": "The cell line, U937, was cultured like Example 13. The activated U937 was then seeded in a 96-well plate in a concentration of 1.6×10^5 cell/well. The wells were added 6.3 μg/ml, 12.5 μg/ml, 25 μg/ml and 50 μg/ml of kaerophyllin and 3.8 μg/ml, 7.5 μg/ml, 15 μg/ml and 30 μg/ml of isokaerphyllin and 10 μl of buffer, respectively. Each well was adjusted to a final volume of 190 μl. The plate was put under 37° C. for 30 minutes. Each well was added 10 μl of 20 μg/ml LPS to stimulate cells. After 16-18 hours under 37° C., the plate was centrifuged to collect the supernatants.\nThe amount of IL-6 in the supernatant was measured by ELISA (R&D System®) based on the control (DMSO). Meanwhile, the cell viability was measured by MTT assay (Sigma)."}}, "data": [{"smiles": "COc1ccc2c(c1)c(CC(=O)O)c(C)n2C(=O)c1ccc(Cl)cc1", "note": "[indomethacin]", "values": [{"measurement": "Inhibition at 0 hour (%)", "setting": "[1]; 0 hour", "value": 0, "unit": "%"}, {"measurement": "Inhibition at the 1.5th hour (%)", "setting": "[1]; 1.5th hour", "value": 21, "unit": "%"}, {"measurement": "Inhibition at the 3rd hour (%)", "setting": "[1]; 3rd hour", "value": 52, "unit": "%"}]}, {"smiles": "C[C@@H]1C[C@H]2[C@@H]3CCC4=CC(=O)C=C[C@]4(C)[C@@]3(F)[C@@H](O)C[C@]2(C)[C@@]1(O)C(=O)CO", "note": "[DEX, dexamethasone]", "values": [{"measurement": "Inhibition of TNF-α (%)", "setting": "TNF-α [2]", "value": 9, "unit": "%"}, {"measurement": "Inhibition of IL-6 (%)", "setting": "IL-6 [3]", "value": "−55", "unit": "%"}]}, {"smiles": "COc1ccc(/C=C2\\C(=O)OC[C@@H]2Cc2ccc3c(c2)OCO3)cc1OC", "note": "[isokaerophyllin, cis-(3,4-dimethoxybenzylidene)-β-(3,4-methylenedioxylbenzyl)-γ-butyrolactone]", "values": [{"measurement": "IC50", "setting": "TNF-α [4]", "value": "18 ± 4", "unit": "µg/mL"}, {"measurement": "IC50", "setting": "IL-6 [5]", "value": "24 ± 6", "unit": "µg/mL"}]}]}
